What was measured:
[1] = target: T1, Inhibitor of nuclear factor kappa-B kinase subunit epsilon (Homo sapiens) (UniProt Q14164); test: Inhibition of human recombinant IKKe at 40 nM related to control ULK1
T1 sequence (whole entry): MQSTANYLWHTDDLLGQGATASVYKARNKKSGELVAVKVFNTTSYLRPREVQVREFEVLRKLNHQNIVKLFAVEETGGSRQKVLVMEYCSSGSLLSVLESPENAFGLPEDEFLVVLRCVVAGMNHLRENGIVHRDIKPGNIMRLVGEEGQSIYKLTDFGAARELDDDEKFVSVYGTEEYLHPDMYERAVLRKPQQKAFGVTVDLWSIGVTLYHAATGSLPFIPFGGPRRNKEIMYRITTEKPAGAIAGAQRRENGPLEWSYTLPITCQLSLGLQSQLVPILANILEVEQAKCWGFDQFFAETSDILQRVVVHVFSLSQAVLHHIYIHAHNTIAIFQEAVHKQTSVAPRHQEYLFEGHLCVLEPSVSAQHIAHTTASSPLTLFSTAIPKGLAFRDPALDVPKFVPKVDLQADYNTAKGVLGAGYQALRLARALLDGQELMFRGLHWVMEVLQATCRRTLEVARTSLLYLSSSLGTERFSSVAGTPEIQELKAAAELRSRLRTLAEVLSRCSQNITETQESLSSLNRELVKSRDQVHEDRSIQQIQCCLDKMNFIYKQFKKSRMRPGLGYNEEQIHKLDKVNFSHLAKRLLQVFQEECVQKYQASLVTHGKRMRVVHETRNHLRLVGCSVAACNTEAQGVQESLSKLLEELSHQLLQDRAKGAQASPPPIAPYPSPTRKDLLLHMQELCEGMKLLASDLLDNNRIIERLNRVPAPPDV

[2] = target: NT-3 growth factor receptor (Homo sapiens) (UniProt Q16288); test: Inhibition of human recombinant TRKC at 40 nM related to control ULK1
NT-3 growth factor receptor (Homo sapiens), sequence (Q16288 32-839 limits assumed): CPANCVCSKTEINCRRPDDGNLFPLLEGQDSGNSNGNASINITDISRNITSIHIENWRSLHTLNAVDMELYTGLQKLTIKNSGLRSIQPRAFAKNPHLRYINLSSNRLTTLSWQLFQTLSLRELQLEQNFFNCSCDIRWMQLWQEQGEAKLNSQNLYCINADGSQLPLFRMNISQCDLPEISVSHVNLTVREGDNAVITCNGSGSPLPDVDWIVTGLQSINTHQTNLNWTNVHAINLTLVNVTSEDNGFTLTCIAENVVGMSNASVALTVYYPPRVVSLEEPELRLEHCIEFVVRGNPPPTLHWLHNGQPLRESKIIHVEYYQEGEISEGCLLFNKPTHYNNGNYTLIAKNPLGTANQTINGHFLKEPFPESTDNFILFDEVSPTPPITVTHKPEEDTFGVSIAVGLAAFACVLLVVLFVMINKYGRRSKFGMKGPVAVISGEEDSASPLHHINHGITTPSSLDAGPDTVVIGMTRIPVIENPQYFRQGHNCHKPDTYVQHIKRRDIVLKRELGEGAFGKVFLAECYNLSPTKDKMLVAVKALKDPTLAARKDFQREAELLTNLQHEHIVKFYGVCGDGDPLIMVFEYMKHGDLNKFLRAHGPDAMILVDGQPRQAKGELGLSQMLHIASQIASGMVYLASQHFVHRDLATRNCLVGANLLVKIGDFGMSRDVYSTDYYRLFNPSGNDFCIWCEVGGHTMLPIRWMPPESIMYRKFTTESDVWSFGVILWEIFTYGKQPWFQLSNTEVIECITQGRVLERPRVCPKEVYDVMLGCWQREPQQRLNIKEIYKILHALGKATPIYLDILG

[3] = target: T2, G protein-coupled receptor kinase 3 (Homo sapiens) (UniProt P35626); test: Inhibition of human recombinant BARK2 at 500 nM related to control ULK1
T2 sequence (whole entry): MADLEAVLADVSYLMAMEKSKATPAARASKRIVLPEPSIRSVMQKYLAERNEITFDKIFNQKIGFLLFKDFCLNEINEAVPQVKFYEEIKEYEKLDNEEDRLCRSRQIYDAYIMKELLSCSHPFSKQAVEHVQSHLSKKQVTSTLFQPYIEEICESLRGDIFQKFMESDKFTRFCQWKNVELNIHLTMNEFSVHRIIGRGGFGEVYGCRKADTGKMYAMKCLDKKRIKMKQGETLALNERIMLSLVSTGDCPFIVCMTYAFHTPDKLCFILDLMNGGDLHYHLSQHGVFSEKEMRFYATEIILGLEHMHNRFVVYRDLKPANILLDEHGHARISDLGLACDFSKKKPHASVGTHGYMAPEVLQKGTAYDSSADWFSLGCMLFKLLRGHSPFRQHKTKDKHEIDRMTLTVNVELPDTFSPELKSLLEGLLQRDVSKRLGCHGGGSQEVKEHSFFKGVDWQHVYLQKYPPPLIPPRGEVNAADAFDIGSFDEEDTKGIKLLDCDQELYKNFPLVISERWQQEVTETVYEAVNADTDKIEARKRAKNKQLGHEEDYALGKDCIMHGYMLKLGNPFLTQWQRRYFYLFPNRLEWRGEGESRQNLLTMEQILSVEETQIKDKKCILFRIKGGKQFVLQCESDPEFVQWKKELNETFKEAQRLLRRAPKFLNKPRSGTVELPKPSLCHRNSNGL

[4] = target: T3, Serine/threonine-protein kinase Sgk2 (Homo sapiens) (UniProt Q9HBY8); test: Inhibition of human recombinant SGK2 at 500 nM related to control ULK1
T3 sequence (whole entry): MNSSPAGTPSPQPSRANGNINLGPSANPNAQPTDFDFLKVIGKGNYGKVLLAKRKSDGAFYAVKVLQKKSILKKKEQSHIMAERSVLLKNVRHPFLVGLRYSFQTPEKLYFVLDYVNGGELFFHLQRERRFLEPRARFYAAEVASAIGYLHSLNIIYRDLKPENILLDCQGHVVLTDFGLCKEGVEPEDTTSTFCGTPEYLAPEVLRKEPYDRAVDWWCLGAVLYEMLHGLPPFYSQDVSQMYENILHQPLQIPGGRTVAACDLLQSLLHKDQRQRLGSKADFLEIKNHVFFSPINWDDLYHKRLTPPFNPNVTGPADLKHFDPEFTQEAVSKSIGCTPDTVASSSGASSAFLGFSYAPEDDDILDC

[5] = target: Mitogen-activated protein kinase kinase kinase 20 (Homo sapiens) (UniProt Q9NYL2); test: Inhibition of human recombinant ZAK at 500 nM related to control ULK1
Mitogen-activated protein kinase kinase kinase 20 (Homo sapiens), sequence (Q9NYL2 2-800 limits assumed): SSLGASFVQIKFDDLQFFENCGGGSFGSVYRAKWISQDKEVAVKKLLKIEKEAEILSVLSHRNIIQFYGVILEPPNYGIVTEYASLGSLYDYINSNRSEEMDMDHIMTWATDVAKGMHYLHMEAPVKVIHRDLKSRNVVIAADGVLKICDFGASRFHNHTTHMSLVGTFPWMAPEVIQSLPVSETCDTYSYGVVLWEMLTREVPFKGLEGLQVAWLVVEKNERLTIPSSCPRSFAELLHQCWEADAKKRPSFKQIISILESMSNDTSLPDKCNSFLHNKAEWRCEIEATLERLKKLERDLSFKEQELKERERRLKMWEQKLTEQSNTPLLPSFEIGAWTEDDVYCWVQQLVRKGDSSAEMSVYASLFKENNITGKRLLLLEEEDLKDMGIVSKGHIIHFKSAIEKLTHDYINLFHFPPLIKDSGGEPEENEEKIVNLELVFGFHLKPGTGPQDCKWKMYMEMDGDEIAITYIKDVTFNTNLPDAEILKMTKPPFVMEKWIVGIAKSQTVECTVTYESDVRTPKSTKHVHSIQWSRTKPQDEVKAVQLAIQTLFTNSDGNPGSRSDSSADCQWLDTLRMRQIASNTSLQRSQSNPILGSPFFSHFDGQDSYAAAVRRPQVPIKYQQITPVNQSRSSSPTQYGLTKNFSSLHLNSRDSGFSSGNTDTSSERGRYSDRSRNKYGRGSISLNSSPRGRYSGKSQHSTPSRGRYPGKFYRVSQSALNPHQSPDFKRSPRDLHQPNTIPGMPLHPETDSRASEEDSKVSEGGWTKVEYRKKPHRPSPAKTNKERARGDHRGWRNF

[6] = target: Proto-oncogene tyrosine-protein kinase Src (Homo sapiens) (UniProt P12931); test: Inhibition of human recombinant SRC at 500 nM related to control ULK1
Proto-oncogene tyrosine-protein kinase Src (Homo sapiens), sequence (P12931 2-536 limits assumed): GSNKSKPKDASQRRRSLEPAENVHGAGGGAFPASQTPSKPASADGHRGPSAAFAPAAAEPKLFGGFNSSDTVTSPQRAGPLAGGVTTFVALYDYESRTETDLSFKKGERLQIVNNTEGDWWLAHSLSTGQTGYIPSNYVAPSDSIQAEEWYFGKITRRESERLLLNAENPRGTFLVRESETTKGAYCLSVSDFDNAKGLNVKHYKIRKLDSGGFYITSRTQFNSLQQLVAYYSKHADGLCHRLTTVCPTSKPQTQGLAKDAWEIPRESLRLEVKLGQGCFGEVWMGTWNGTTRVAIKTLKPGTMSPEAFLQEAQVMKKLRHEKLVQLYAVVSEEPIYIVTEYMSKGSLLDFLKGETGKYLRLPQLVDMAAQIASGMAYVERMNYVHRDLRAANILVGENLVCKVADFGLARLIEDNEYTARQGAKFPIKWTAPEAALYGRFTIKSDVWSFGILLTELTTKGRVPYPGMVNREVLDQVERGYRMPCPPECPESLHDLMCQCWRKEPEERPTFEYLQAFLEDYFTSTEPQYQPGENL

[7] = target: T4, Serine/threonine-protein kinase Nek11 (Homo sapiens) (UniProt Q8NG66); test: Inhibition of human recombinant NEK11 at 15 nM in presence of ATP by radiometric assay relative to control
T4 sequence (whole entry): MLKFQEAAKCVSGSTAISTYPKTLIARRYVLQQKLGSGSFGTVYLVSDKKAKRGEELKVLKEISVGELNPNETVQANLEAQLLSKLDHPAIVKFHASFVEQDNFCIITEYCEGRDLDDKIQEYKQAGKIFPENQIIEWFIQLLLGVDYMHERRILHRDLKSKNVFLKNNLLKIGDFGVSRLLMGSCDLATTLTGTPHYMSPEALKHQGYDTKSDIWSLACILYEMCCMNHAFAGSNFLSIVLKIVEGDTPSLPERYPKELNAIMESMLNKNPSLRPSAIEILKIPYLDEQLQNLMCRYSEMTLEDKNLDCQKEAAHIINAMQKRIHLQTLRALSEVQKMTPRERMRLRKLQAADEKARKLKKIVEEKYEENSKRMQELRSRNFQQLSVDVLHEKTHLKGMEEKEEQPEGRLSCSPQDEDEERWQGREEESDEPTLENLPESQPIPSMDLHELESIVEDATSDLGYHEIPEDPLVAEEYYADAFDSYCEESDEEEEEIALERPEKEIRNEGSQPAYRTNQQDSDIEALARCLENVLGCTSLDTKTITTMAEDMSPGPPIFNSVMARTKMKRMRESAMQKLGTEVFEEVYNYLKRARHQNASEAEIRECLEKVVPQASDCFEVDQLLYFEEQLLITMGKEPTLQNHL

[8] = target: Platelet-derived growth factor receptor beta (Homo sapiens) (UniProt P09619); test: Inhibition of human recombinant PDGFRb at 15 nM related to control ULK1
Platelet-derived growth factor receptor beta (Homo sapiens), sequence (P09619 whole entry): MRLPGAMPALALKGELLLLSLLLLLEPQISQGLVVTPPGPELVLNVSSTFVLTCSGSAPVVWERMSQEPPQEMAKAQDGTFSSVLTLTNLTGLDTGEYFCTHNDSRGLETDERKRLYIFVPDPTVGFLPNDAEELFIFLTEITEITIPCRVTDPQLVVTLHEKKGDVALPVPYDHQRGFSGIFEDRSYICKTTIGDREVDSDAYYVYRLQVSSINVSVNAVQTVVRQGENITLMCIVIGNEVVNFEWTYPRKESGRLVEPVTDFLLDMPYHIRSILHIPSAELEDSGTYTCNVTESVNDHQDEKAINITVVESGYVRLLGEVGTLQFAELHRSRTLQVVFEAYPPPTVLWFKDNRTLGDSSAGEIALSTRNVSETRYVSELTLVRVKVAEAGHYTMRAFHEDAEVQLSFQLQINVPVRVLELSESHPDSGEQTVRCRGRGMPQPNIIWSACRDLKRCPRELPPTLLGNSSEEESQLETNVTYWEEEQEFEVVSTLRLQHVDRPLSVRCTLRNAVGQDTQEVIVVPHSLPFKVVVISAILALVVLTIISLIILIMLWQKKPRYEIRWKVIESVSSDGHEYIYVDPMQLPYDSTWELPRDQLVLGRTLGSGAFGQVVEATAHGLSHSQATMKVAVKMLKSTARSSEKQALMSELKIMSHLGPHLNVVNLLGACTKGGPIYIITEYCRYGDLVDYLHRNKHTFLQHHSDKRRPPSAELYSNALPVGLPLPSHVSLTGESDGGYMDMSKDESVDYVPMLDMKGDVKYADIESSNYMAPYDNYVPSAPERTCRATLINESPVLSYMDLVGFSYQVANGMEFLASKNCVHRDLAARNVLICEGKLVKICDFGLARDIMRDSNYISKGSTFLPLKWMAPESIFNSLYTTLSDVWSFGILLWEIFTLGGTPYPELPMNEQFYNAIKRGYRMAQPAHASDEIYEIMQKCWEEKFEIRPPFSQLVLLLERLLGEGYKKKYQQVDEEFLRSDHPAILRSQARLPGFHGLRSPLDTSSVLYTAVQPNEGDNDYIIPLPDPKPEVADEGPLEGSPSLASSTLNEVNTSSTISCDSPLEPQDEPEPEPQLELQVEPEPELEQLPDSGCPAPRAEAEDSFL

[9] = target: Serine/threonine-protein kinase MARK1 (Homo sapiens) (UniProt Q9P0L2); test: Inhibition of human recombinant MARK1 at 15 nM related to control ULK1
Serine/threonine-protein kinase MARK1 (Homo sapiens), sequence (Q9P0L2 whole entry, looked up): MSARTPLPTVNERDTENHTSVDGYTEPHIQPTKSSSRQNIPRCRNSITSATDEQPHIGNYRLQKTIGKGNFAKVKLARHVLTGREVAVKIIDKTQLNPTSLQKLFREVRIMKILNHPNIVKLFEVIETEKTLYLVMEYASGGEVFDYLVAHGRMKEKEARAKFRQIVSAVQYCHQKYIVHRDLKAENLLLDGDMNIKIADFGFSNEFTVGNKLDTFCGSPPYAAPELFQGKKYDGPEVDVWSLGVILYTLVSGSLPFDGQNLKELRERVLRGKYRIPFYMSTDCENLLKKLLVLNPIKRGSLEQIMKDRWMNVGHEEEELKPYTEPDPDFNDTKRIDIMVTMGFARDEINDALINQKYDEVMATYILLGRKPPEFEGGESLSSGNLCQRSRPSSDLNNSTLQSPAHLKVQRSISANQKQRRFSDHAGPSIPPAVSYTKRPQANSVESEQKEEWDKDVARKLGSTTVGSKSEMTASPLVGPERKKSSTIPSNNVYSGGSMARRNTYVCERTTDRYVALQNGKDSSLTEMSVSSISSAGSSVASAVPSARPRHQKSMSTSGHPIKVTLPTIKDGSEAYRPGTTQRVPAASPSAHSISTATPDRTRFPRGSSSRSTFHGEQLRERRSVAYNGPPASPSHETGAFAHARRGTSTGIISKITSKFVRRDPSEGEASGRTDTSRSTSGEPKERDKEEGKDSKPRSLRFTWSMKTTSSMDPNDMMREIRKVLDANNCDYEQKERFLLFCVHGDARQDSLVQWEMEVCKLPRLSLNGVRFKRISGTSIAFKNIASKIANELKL

`O=C(N[C@@H](C1CC1)C(F)(F)F)c1cc(-c2cnn3cc(-c4ccc(F)cc4)cnc23)cs1` was tested, and the fold change (FC) [1] was 0.41 and the fold change (FC) [2] was 0.
With `CNC(=O)c1ccccc1Oc1nc(Nc2cc(OC)c(OC)c(OC)c2)ncc1Br` the fold change (FC) [3] was 0.09, the fold change (FC) [4] was 0.23 and the fold change (FC) [5] was 0.01. It also gave a fold change (FC) [6] of 0.26.
For `CC(C)[C@H](NC(=O)c1cc(-c2cnn3cc(-c4ccc(OCCN5CCCCC5)cc4)cnc23)cs1)C(F)(F)F`, the inhibition [7] was 0%, the fold change (FC) [8] was 0 and the fold change (FC) [9] was 0.61.

Source: ChEMBL document CHEMBL5653631, “A Potent and Selective ULK1 Inhibitor Suppresses Autophagy and Sensitizes Cancer Cells to Nutrient Stress” (iScience, 2018)
